Reference: the kinase profiling compilation of Christmann-Franck et al. (2016)

Experiments:
Experiment in all cases: KINOMEscan competition binding
Conditions in all cases: compound 10.0 µM
[1] = biological target: LIMK2 (human) (UniProt P53671)
[2] = biological target: PIK3CB (human) (UniProt P42338)
[3] = biological target: RIPK2 (human) (UniProt O43353)
[4] = biological target: TLK2 (human) (UniProt Q86UE8)
[5] = biological target: RPS6KA5 KD1 (human) (UniProt O75582)
[6] = biological target: TYRO3 (human) (UniProt Q06418)
[7] = biological target: MAPK14 (human) (UniProt Q16539)
[8] = biological target: STK3 (human) (UniProt Q13188)
[9] = biological target: IRAK1 (human) (UniProt P51617)
Sequence of IRAK1 (human) (P51617 whole entry, looked up): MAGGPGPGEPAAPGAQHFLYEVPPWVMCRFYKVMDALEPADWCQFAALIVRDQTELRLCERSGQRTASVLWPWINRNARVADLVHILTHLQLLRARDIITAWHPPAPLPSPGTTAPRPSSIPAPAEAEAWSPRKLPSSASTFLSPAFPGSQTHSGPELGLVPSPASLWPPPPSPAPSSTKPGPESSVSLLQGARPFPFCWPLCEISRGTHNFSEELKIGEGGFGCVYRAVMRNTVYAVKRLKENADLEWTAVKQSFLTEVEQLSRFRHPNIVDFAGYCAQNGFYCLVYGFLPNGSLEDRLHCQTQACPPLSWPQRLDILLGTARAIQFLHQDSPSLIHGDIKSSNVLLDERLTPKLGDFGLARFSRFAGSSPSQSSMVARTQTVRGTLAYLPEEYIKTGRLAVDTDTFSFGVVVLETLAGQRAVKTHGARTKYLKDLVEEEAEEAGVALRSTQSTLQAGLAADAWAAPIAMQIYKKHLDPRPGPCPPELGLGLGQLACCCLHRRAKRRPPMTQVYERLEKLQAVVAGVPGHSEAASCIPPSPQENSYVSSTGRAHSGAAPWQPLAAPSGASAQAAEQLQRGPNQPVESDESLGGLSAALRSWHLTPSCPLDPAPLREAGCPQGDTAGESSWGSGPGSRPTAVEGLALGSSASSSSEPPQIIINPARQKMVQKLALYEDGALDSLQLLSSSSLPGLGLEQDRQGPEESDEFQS

[10] = biological target: MAP3K7 (human) (UniProt O43318)
[11] = biological target: HIPK4 (human) (UniProt Q8NE63)
[12] = biological target: OXSR1 (human) (UniProt O95747)
[13] = biological target: MARK2 (human) (UniProt Q7KZI7)
Sequence of MARK2 (human) (Q7KZI7 whole entry, looked up): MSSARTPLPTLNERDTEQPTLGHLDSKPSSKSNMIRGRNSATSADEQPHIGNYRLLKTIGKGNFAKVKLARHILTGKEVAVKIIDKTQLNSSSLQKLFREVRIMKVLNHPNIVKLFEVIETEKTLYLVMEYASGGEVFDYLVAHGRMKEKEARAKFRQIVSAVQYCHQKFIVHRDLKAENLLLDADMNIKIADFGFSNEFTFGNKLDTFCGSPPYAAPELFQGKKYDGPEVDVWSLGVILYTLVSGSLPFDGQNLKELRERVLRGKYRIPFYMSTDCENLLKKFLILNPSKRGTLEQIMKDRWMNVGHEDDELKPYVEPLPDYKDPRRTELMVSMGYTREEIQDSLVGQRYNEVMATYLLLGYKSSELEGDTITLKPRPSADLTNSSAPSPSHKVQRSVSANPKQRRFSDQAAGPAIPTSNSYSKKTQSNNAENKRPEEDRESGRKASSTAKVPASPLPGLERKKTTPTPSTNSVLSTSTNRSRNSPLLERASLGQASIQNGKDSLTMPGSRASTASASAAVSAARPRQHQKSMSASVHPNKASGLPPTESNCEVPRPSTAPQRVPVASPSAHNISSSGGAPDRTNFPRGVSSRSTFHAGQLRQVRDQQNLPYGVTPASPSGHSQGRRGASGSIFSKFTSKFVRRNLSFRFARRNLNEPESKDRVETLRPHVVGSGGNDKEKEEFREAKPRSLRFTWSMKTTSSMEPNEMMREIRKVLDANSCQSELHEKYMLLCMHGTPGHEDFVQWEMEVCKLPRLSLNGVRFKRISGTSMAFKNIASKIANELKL

[14] = biological target: ADCK3 (human) (UniProt Q8NI60)
Sequence of ADCK3 (human) (Q8NI60 whole entry, looked up): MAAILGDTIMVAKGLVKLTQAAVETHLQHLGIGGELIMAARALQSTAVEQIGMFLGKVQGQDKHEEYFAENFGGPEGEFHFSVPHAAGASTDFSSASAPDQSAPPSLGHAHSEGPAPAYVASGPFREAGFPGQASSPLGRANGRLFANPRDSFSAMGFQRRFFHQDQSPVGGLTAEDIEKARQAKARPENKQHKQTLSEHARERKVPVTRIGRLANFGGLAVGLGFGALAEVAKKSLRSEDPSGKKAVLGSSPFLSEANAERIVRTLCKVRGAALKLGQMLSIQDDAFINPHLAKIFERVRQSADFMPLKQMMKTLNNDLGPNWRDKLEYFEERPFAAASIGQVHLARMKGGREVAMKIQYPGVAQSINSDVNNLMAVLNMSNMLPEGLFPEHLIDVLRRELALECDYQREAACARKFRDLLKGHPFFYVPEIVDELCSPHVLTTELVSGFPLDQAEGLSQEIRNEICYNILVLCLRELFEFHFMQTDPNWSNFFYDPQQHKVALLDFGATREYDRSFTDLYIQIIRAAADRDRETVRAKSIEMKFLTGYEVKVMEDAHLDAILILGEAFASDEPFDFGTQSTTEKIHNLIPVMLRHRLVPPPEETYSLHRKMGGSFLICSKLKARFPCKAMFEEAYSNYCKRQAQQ

[15] = biological target: AURKB (human) (UniProt Q96GD4)
[16] = biological target: STK35 (human) (UniProt Q8TDR2)
[17] = biological target: PDPK1 (human) (UniProt O15530)
Sequence of PDPK1 (human) (O15530 whole entry, looked up): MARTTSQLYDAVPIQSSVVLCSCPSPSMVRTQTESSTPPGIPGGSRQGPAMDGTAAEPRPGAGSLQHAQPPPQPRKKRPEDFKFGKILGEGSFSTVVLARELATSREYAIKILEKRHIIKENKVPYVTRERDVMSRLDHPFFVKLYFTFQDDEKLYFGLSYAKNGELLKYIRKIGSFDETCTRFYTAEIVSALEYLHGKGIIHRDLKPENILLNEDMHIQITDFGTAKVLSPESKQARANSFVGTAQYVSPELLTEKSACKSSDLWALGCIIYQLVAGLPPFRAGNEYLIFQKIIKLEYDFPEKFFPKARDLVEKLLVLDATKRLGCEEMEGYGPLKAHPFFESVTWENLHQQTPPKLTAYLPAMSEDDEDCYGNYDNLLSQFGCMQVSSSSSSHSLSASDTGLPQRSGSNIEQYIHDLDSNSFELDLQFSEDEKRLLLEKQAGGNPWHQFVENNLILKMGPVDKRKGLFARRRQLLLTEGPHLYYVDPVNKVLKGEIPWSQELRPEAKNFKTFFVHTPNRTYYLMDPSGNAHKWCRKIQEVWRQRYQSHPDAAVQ

[18] = biological target: PRPF4B (human) (UniProt Q13523)
[19] = tested on: MET (human), P08581 [Y1235D]
[20] = biological target: PAK7 (human) (UniProt Q9P286)
Sequence of PAK7 (human) (Q9P286 whole entry, looked up): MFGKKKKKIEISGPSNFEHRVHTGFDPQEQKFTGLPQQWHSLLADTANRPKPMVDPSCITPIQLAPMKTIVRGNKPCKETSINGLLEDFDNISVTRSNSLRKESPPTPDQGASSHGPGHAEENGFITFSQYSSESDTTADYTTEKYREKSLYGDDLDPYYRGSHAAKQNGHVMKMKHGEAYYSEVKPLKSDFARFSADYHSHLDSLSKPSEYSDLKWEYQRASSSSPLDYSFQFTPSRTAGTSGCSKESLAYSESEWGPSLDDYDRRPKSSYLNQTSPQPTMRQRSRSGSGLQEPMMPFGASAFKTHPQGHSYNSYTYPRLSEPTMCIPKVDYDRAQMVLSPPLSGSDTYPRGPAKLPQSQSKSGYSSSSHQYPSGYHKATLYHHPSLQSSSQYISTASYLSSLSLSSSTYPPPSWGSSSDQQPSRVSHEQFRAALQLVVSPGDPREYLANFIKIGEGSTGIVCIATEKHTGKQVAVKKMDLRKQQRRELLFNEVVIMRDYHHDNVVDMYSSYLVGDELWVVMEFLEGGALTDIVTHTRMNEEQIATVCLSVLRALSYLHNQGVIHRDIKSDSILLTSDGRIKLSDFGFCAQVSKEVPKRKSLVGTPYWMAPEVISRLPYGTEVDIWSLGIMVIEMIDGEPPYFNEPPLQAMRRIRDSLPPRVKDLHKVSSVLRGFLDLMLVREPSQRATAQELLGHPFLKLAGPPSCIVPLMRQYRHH

[21] = biological target: ERBB2 (human) (UniProt P04626)
[22] = biological target: MAPK12 (human) (UniProt P53778)
Sequence of MAPK12 (human) (P53778 whole entry, looked up): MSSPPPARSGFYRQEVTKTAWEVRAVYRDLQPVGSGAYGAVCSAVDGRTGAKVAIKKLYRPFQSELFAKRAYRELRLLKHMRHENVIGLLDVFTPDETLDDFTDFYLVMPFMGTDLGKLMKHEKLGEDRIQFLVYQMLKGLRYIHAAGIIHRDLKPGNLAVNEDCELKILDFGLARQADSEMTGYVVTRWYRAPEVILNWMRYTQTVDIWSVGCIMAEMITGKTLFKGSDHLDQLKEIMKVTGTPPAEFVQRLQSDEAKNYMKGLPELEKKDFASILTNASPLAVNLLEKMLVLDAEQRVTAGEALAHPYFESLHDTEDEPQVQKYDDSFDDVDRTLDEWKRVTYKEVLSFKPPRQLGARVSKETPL

[23] = biological target: TYK2 JH2 pseudokinase (human) (UniProt P29597)
Sequence of TYK2 JH2 pseudokinase (human) (P29597 whole entry, looked up): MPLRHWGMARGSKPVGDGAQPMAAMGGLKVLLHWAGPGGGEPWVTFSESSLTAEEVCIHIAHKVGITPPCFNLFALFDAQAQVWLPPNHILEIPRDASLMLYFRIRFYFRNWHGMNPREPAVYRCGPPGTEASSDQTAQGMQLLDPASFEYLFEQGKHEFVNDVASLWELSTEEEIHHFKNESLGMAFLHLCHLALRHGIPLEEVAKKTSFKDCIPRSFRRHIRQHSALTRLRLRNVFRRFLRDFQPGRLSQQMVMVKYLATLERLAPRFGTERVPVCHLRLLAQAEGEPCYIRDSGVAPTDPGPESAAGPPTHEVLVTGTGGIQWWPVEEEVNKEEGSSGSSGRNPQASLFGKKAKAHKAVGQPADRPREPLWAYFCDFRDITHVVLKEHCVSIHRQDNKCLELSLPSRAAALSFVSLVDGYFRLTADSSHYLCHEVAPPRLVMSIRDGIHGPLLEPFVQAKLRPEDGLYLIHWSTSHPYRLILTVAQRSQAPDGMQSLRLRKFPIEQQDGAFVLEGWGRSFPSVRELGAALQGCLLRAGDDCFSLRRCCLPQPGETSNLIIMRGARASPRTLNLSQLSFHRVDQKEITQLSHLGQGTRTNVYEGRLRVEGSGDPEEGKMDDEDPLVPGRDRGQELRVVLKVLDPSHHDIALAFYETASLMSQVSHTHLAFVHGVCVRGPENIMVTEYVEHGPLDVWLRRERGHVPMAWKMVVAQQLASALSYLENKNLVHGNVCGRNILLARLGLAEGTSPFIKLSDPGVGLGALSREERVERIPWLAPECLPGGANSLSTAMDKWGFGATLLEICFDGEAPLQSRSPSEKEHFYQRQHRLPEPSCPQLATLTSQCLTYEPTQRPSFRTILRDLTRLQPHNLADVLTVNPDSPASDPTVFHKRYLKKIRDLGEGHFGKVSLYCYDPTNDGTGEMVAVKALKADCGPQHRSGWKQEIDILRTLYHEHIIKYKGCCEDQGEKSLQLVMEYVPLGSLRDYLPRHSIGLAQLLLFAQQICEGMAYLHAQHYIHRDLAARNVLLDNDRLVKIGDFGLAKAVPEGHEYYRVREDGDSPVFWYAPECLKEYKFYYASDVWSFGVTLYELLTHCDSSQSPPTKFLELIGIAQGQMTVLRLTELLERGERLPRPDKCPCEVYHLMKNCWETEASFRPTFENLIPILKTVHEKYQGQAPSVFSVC

[24] = biological target: HCK (human) (UniProt P08631)
[25] = biological target: RIOK3 (human) (UniProt O14730)
[26] = tested on: KIT (human), P10721 [L576P]
[27] = biological target: MINK1 (human) (UniProt Q8N4C8)
[28] = biological target: ACVR1 (human) (UniProt Q04771)
[29] = biological target: DSTYK (human) (UniProt Q6XUX3)
[30] = biological target: SRMS (human) (UniProt Q9H3Y6)
[31] = biological target: MAPK13 (human) (UniProt O15264)
[32] = biological target: STK10 (human) (UniProt O94804)
[33] = biological target: KIT (human) (UniProt P10721)
[34] = tested on: FLT3 (human), P36888 [R834Q]
[35] = biological target: TIE1 (human) (UniProt P35590)
[36] = biological target: TGFBR1 (human) (UniProt P36897)
[37] = biological target: MTOR (human) (UniProt P42345)
[38] = biological target: CLK2 (human) (UniProt P49760)
[39] = biological target: GAK (human) (UniProt O14976)
[40] = biological target: DYRK1A (human) (UniProt Q13627)

SMILES: C=CC(=O)Nc1cc(-n2c(=O)ccc3cnc4ccc(-c5cn[nH]c5)cc4c32)ccc1C
- kinase still bound, per cent of control [1]: 100%
- kinase still bound, per cent of control [2]: 62%
- kinase still bound, per cent of control [3]: 56%
- kinase still bound, per cent of control [4]: 100%
- kinase still bound, per cent of control [5]: 100%
- kinase still bound, per cent of control [6]: 100%
- kinase still bound, per cent of control [7]: 97%
- kinase still bound, per cent of control [8]: 100%
- kinase still bound, per cent of control [9]: 41%
- kinase still bound, per cent of control [10]: 0.35%
- kinase still bound, per cent of control [11]: 51%
- kinase still bound, per cent of control [12]: 79%
- kinase still bound, per cent of control [13]: 83%
- kinase still bound, per cent of control [14]: 91%
- kinase still bound, per cent of control [15]: 97%
- kinase still bound, per cent of control [16]: 98%
- kinase still bound, per cent of control [17]: 100%
- kinase still bound, per cent of control [18]: 84%
- kinase still bound, per cent of control [19]: 100%
- kinase still bound, per cent of control [20]: 95%
- kinase still bound, per cent of control [21]: 42%
- kinase still bound, per cent of control [22]: 98%
- kinase still bound, per cent of control [23]: 36%
- kinase still bound, per cent of control [24]: 100%
- kinase still bound, per cent of control [25]: 31%
- kinase still bound, per cent of control [26]: 68%
- kinase still bound, per cent of control [27]: 31%
- kinase still bound, per cent of control [28]: 29%
- kinase still bound, per cent of control [29]: 70%
- kinase still bound, per cent of control [30]: 75%
- kinase still bound, per cent of control [31]: 76%
- kinase still bound, per cent of control [32]: 94%
- kinase still bound, per cent of control [33]: 65%
- kinase still bound, per cent of control [34]: 12%
- kinase still bound, per cent of control [35]: 100%
- kinase still bound, per cent of control [36]: 83%
- kinase still bound, per cent of control [37]: 0%
- kinase still bound, per cent of control [38]: 1.6%
- kinase still bound, per cent of control [39]: 18%
- kinase still bound, per cent of control [40]: 0.1%

SMILES: CN(C)C/C=C/C(=O)Nc1ccc(C(=O)Nc2cccc(Nc3nccc(-c4cccnc4)n3)c2)cc1
- kinase still bound, per cent of control [1]: 92%
- kinase still bound, per cent of control [2]: 100%
- kinase still bound, per cent of control [3]: 84%
- kinase still bound, per cent of control [4]: 100%
- kinase still bound, per cent of control [5]: 100%
- kinase still bound, per cent of control [6]: 100%
- kinase still bound, per cent of control [7]: 99%
- kinase still bound, per cent of control [8]: 100%
- kinase still bound, per cent of control [9]: 0.9%
- kinase still bound, per cent of control [10]: 9.2%
- kinase still bound, per cent of control [11]: 8.6%
- kinase still bound, per cent of control [12]: 100%
- kinase still bound, per cent of control [13]: 73%
- kinase still bound, per cent of control [14]: 100%
- kinase still bound, per cent of control [15]: 22%
- kinase still bound, per cent of control [16]: 80%
- kinase still bound, per cent of control [17]: 100%
- kinase still bound, per cent of control [18]: 100%
- kinase still bound, per cent of control [19]: 100%
- kinase still bound, per cent of control [20]: 52%
- kinase still bound, per cent of control [21]: 97%
- kinase still bound, per cent of control [22]: 76%
- kinase still bound, per cent of control [23]: 0.2%
- kinase still bound, per cent of control [24]: 100%
- kinase still bound, per cent of control [25]: 13%
- kinase still bound, per cent of control [26]: 0.35%
- kinase still bound, per cent of control [27]: 50%
- kinase still bound, per cent of control [28]: 53%
- kinase still bound, per cent of control [29]: 100%
- kinase still bound, per cent of control [30]: 85%
- kinase still bound, per cent of control [31]: 100%
- kinase still bound, per cent of control [32]: 100%
- kinase still bound, per cent of control [33]: 3.8%
- kinase still bound, per cent of control [34]: 83%
- kinase still bound, per cent of control [35]: 55%
- kinase still bound, per cent of control [36]: 100%
- kinase still bound, per cent of control [37]: 80%
- kinase still bound, per cent of control [38]: 2.2%
- kinase still bound, per cent of control [39]: 3.6%
- kinase still bound, per cent of control [40]: 28%

SMILES: O=C(Nc1cccc(Nc2ncc(Br)c(NCCc3cnc[nH]3)n2)c1)N1CCCC1
- kinase still bound, per cent of control [1]: 59%
- kinase still bound, per cent of control [2]: 100%
- kinase still bound, per cent of control [3]: 58%
- kinase still bound, per cent of control [4]: 56%
- kinase still bound, per cent of control [5]: 57%
- kinase still bound, per cent of control [6]: 85%
- kinase still bound, per cent of control [7]: 100%
- kinase still bound, per cent of control [8]: 0.45%
- kinase still bound, per cent of control [9]: 0.25%
- kinase still bound, per cent of control [10]: 1.3%
- kinase still bound, per cent of control [11]: 2%
- kinase still bound, per cent of control [12]: 25%
- kinase still bound, per cent of control [13]: 0.4%
- kinase still bound, per cent of control [14]: 100%
- kinase still bound, per cent of control [15]: 0%
- kinase still bound, per cent of control [16]: 67%
- kinase still bound, per cent of control [17]: 2.4%
- kinase still bound, per cent of control [18]: 5.3%
- kinase still bound, per cent of control [19]: 2.4%
- kinase still bound, per cent of control [20]: 1.6%
- kinase still bound, per cent of control [21]: 88%
- kinase still bound, per cent of control [22]: 65%
- kinase still bound, per cent of control [23]: 0%
- kinase still bound, per cent of control [24]: 42%
- kinase still bound, per cent of control [25]: 0.5%
- kinase still bound, per cent of control [26]: 0%
- kinase still bound, per cent of control [27]: 4.2%
- kinase still bound, per cent of control [28]: 76%
- kinase still bound, per cent of control [29]: 36%
- kinase still bound, per cent of control [30]: 37%
- kinase still bound, per cent of control [31]: 11%
- kinase still bound, per cent of control [32]: 4.6%
- kinase still bound, per cent of control [33]: 0.15%
- kinase still bound, per cent of control [34]: 7%
- kinase still bound, per cent of control [35]: 2.2%
- kinase still bound, per cent of control [36]: 77%
- kinase still bound, per cent of control [37]: 87%
- kinase still bound, per cent of control [38]: 2.2%
- kinase still bound, per cent of control [39]: 1.4%
- kinase still bound, per cent of control [40]: 12%
